Measured values from US20110251144A1, “MOLECULAR MODULATORS OF THE WNT/BETA-CATENIN PATHWAY” (MASSACHUSETTS INSTITUTE OF TECHNOLOGY, priority 2008, published 2011).
“Also recorded” adds a separate entry of the source. Like-named read-outs stand apart in the source and are kept apart here.

Experiments:
[1] = tested on: Wnt/β-catenin signaling (beta-catenin activated reporter, BAR); test: High throughput small molecule screen, Wnt/β-catenin reporter in RKO cells; assay type: cell-based, human
[2] = tested on: Wnt/β-catenin signaling (beta-catenin activated reporter, BAR); test: High throughput small molecule screen, beta-catenin activated reporter (BAR) in HT22 cells; assay type: cell-based, mouse
Procedure: Compounds were dissolved in dimethylsulphoxide (DMSO). For the primary screen, performed in duplicate, HT22 cells stably expressing the beta-catenin activated reporter (BAR) were cultured in growth medium (DMEM/10% FBS/1% antibiotic). 3000 cells per well were transferred to 384-well clear bottom plates (Nalgene Nunc; Rochester, N.Y.) in 30 μL of growth medium. The following day, […] of compound and 10 μL of either growth media or WNT3A conditioned media (E.C.50 dose) was transferred to the cells. The next day each well was imaged using transmitted light with the ImageXpress Micro (Molecular devices; Sunnyvale, Calif.) followed by the addition of 10 μL of Steady-Glo (Promega; Madison, Wis.) as per the manufacture's instructions, and luminescence measurement on an EnVision Multilabel plate reader (PerkinElmer; Waltham, Mass.). Viability was scored by analyzing the ImageXpress images. As described in detail in Seiler et al. (Seiler et al., Nucleic Acids Res. 36:D351 (2008), which is hereby incorporated by reference in its entirety), each compound well received an algebraically signed Z-score corresponding to the number of standard deviations it fell above or below the mean of a well-defined mock-treatment distribution of DMSO controls. Z-score normalized data from the growth media stimulus group were sorted by average percent change. The fold-increase over the background of DMSO controls for each treatment was also calculated. Top compounds with the greatest percent change of activity with the growth media were then resorted based on the percent change with the WNT3A stimulus.
These compounds represent FDA approved compounds and drugs or known bioactive molecules. RKO (human colorectal carcinoma red line) and HT22 (mouse hyppocampal line) cell lines were screened. The lines were tested without a stimulus, in presence of an E.C.50 dose of Wnt 3A condition media and in presence of a subthreshold dose of LiCl.

nuclear β-catenin = test: Immunofluorescent staining of β-catenin in B16 cells; assay type: cell-based, murine; conditions: 10 mM lithium chloride or BIO, versus sodium chloride or DMSO
Procedure: A polyclonal rabbit anti-β-catenin antibody was used for detection of β-catenin (1:1000 dilution for immunoblot, 1:200 dilution for immunohistochemistry). Cells were grown on 18 mm glass coverslips, for 48-72 hours, fixed using 4% paraformaldahyde, permeabilized using 0.25% Triton X-100, and then blocked with 10% goat serum. Goat anti-rabbit Alexa Fluor-568 antibody (Molecular Probes; Eugene, Oreg.) was diluted 1:1000. Cells were counterstained for nucleic acid with DAPI (Molecular Probes; Eugene, Oreg.). Paraffin-embedded nevus sections were stained using an antibody dilution of 1:200. Cellular lysates were obtained by lysing cells on plate with a 0.1% NP-40 based buffer and analyzed by NuPage 4-12% gradient gels (Invitrogen; Grand Island, N.Y.). The WNT5A antibody was obtained from Cell Signaling Technologies (Danvers, Mass.).

B16 cells [3] = test: Proliferation of B16 cells by MTT assay; assay type: cell-based, murine
[4] = Suitability for murine therapeutic trials (toxicity, serum levels); assay type: in vivo; conditions: mice
[5] = tested on: Axin2, Si/Gp100, Kit and other melanocytic genes; test: Quantitative PCR of endogenous gene targets in B16 melanoma cells; assay type: cell-based, murine
Procedure: Cells were cultured for approximately 72 hours until they reached 80-90% confluency. RNA was purified using the RNeasy kit using the manufacturer's protocol (Qiagen; Maryland, MD). cDNA was synthesized using Superscript Reverse Transcriptase (Invitrogen; Grand Island, N.Y.). […] Quantitative PCR results presented in the manuscript are representative of experiments performed on a minimum of three biologic replicates.

B16 cells [6] = test: Pigmentation of cultured B16 cells; assay type: cell-based, murine; conditions: B16 cells treated for 2 passages, 10 μM
Axin2 promoter = test: Secondary screen, firefly luciferase under the Axin2 promoter in HEK293T cells; assay type: cell-based; conditions: alone and with WNT3A conditioned media
B16 melanoma cells = test: B16 footpad tumor inoculation, tumor size and metastasis in C57BL/6 mice; assay type: in vivo
Procedure: Footpad injections of transduced B16 melanoma cells and measurement of popliteal lymph node and lung metastasis was performed as previously described (Murakami et al., Cancer Res. 62:7328 (2002), which is hereby incorporated by reference in its entirety). […] Fumagalli et al., Exp. Neurol. 198:114 (2006), which are hereby incorporated by reference in their entirety). […] All animal studies were performed using IACUC protocols approved by institutional review boards.

[7] = tested on: human melanoma xenografts; conditions: mouse model, Namkoong et al. 2007; cited from earlier work
[8] = RKO cells, in presence of a subthreshold dose of LiCl
[9] = RKO cells, in presence of an E.C.50 dose of Wnt 3A condition media
[10] = HT22 cells, in presence of a subthreshold dose of LiCl
[11] = HT22 cells, in presence of an E.C.50 dose of Wnt 3A condition media
[12] = 10 mM lithium chloride or 1 μM BIO

Compound	RKO Li [1]	RKO Wnt3a [1]	HT22 Li [2]	HT22 Wnt3a [2]	RKO Li [1, 8]	RKO Wnt3a [1, 9]	HT22 Li [2, 10]	HT22 Wnt3a [2, 11]	other results
Cc1[nH]c(=O)c(C#N)cc1-c1ccncc1 [milrinone]	1.00	1.20	0.98	1.75					
CCCCCCCCCCCCCCCCCC(=O)O[C@H](CC(=O)[O-])C[N+](C)(C)C [stearoylcarnitine]					0.92	0.10	3.21	0.38	
azathioprine					1.06	1.30	0.76	2.67	
Cl.Cl.FC(F)(F)c1ccc2c(c1)N(CCCN1CCN(CCCl)CC1)c1ccccc1S2 [Fluphenazine-N-2-chloroethane, Dihydrochloride]	4.27	0.08	1.32	0.13					
O=C1Nc2cc(Br)ccc2/C1=C1/Nc2ccccc2/C1=N\O [BIO, 6-bromoindirubin-3′-oxime]									Nuclear β-catenin by immunofluorescent staining (nuclear β-catenin): increased nuclear β-catenin; Proliferation by MTT assay (B16 cells [3]; [12]): decreased proliferation; Obstacles to murine therapeutic trials [4]: several obstacles relating to both toxicity; Axin2 levels by quantitative PCR [5, 12]: increased Axin2 levels
Nc1nc2ccc(OC(F)(F)F)cc2s1 [riluzole]									Pigmentation (B16 cells [6]): increased pigmentation; Activation of firefly luciferase under the Axin2 promoter (Axin2 promoter): both on its own as well as in synergy with WNT3A conditioned media; Proliferation by MTT assay (B16 cells [3]; three days, 10 μM riluzole): decreased proliferation; Sentinel popliteal lymph node metastasis (Firefly luciferase) (B16 melanoma cells; 9 mice per group, versus control mice with no treatment): significantly decreased metastasis; Tumor size (B16 melanoma cells; after 21 days, treatment initiated one week post-injection, oral in drinking water): No significant difference; Lung metastasis, mice affected (B16 melanoma cells; versus 3 out of 9 control mice): 0 out of 9; Expression of melanocytic genes ([5]; 72 hours, 10 mM lithium chloride or 10 μM riluzole): elevation in levels of melastatin (Trpm1) and Kit transcripts; also recorded: upregulation of melanocytic genes; Proliferation / growth of human melanoma xenografts [7]: could decrease proliferation of human melanoma xenografts
